Measured values as given in ChEMBL document CHEMBL1201862, “PubChem BioAssay data set” (2004).
Active and inactive are the calls of the source.

Experiments:
[1] = target: Genome polyprotein (dengue virus type 2, UniProt P29990); test: Dengue-2 NS5 methyltransferase inhibitors, primary screen, biochemical, confirmation dose response (AID 588689); type: functional
[2] = target: Beta-2 adrenergic receptor (Homo sapiens, UniProt P07550); test: beta2AR agonists driving receptor internalization, dose response, cell-based, FAP fluorogen, flow cytometry, cherry pick 1 (AID 588763); type: functional
[3] = target: Glucose-6-phosphate 1-dehydrogenase (Homo sapiens, UniProt P11413); test: human G6PD enzyme inhibitors, dose response, selectivity assay for P. falciparum G6PD inhibitor project, biochemical, fluorescence (AID 504792); type: functional
[4] = target: Paired box protein Pax-8 (Homo sapiens, UniProt Q06710); test: inhibitors of PAX8-driven TPO luciferase reporter, dose response, RMG-I cells, cherry-pick (AID 687027); type: functional, cell-based;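 also: luciferase reporter driven by Pax8 target thyroperoxidase promoter measured by SteadyGlo luminescence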
[5] = target: T1, DNA repair and recombination protein RAD54-like (Homo sapiens, UniProt Q92698); test: inhibitors of human RAD54 branch migration, confirmation, biochemical, fluorescence, cherry-picked samples, dose series (AID 651657); type: functional
T1 sequence (Q92698 whole entry): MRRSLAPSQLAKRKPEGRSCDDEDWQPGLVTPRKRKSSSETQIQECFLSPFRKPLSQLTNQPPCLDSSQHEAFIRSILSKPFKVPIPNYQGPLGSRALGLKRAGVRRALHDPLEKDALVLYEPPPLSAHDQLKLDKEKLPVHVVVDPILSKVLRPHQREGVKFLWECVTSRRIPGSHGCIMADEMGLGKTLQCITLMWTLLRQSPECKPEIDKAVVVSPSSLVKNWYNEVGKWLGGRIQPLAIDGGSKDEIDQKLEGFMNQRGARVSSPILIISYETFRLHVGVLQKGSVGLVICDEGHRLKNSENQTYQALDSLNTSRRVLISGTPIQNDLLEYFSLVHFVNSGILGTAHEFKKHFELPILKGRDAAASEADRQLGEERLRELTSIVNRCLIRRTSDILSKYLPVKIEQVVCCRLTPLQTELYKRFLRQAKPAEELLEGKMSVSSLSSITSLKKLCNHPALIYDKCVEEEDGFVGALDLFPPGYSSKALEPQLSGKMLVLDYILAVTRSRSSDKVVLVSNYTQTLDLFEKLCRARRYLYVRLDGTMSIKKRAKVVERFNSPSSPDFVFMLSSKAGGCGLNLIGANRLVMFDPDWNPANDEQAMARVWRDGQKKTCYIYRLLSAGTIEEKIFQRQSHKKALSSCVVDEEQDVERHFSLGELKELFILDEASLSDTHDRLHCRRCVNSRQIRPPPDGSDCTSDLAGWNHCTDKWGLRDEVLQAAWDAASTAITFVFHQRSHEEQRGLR

[6] = target: Cytochrome P450 2D6 (Homo sapiens, UniProt P10635);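 also: CYP2D6 member of a cytochrome P450 panel assay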
[7] = target: Cytochrome P450 2C19 (Homo sapiens, UniProt P33261); test: Cytochrome panel assay with activity outcomes. Panel member name: p450-cyp2c19 Compounds with AC50 equal or less than 10 uM are considered active; type: functional
[8] = target: Cytochrome P450 3A4 (Homo sapiens, UniProt P08684);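 also: CYP3A4 tested as one member of a cytochrome P450 panel screen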
[9] = target: Ras and Rab interactor 1/Tyrosine-protein kinase ABL1 (Homo sapiens, UniProt P00519+Q13671); type: functional;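 also: biochemical TR-FRET dose-response test measuring inhibition of binding between Rin1 and Abl proteins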
[10] = target: T2, Hepatocyte nuclear factor 4-alpha (Homo sapiens, UniProt P41235); type: functional, cell-based;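 also: biochemical luminescence-based dose-response counterscreen measuring inhibition of HNF4 dimerization, run alongside a screen for blockers of ABHD5–perilipin-5 interaction; split luciferase complementation of HNF4 fusion proteins in cell lysate measuring dimerization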
T2 sequence (P41235 whole entry): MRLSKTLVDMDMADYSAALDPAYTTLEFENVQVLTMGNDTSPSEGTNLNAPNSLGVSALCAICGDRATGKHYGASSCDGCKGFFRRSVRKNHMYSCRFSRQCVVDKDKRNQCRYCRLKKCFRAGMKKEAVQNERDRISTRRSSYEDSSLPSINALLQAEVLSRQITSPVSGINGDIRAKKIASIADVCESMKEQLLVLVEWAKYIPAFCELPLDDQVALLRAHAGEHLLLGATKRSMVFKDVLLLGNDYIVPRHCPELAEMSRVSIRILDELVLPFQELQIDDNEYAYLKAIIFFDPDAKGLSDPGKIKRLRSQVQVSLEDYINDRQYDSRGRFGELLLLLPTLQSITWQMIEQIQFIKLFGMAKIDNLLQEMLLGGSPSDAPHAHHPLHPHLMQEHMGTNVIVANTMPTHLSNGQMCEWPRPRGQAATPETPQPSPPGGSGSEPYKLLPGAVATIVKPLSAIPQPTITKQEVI

[11] = test system: HEK293; test: cells; type: functional, cell-based; settings: Homo sapiens
[12] = target: Nucleotide-binding oligomerization domain-containing protein 2 (Homo sapiens, UniProt Q9HC29); test: NOD2 signaling inhibitors, cell-based, luminescence, uHTS, HEK293 (AID 1566); type: functional
[13] = cytotoxicity toward NIH3T3 fibroblasts, dose response, counter-screen, cell-based, ATP luminescence, mouse fibroblasts (AID 2010); type: functional;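 also: cells exposed to compound for about 90 hours before reading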
[14] = test system: HEK293; test: cells; type: functional, cell-based; settings: Homo sapiens; remark: listed apart in the source
[15] = test system: HEK293; test: cells; type: functional, cell-based; settings: Homo sapiens; remark: listed apart in the source
[16] = inhibitors of intracellular T. cruzi replication, confirmation, NIH3T3 host cells, beta-gal luminescence (AID 2044); type: functional, cell-based;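 also: intracellular parasites grown in NIH/3T3 mouse fibroblasts as host cells; luminescent beta-galactosidase reporter signal from transgenic T. cruzi replicating inside host cells; inhibitors lower the luminescence signal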
[17] = test system: HEK293; test: NOD2 signaling inhibitors in MDP-stimulated cells, cell-based, uHTS, luminescence (AID 2001); type: functional; settings: Homo sapiens
[18] = test system: HEK293; test: NOD1 signaling inhibitors, primary screen, cell-based, luminescence, uHTS (AID 1578); type: functional; settings: Homo sapiens
[19] = target: T3, Fatty acid synthase (Homo sapiens, UniProt P49327); test: FAS thioesterase domain inhibitors, dose response, biochemical, endpoint fluorescence intensity, uHTS hits (AID 624327); type: functional;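 also: fluorescence from hydrolysis of an O-methyl fluorescein acyl ester substrate by the enzyme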
[20] = target: T3, Fatty acid synthase; test: FAS thioesterase domain inhibitors, dose response, biochemical, kinetic fluorescence intensity (AID 624326); type: functional;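 also: rate of fluorescence rise from hydrolysis of a fluorogenic O-methyl fluorescein ester substrate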
[21] = ARNT/TACC3 interaction disruptors, potency, confirmation, biochemical, AlphaScreen, cherry-picked samples (AID 651703); type: functional, Homo sapiens;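 also: His-tagged ARNT PAS-B domain paired with GST-TACC3 E629A dimer coactivator fragment; potency of inhibitors that break up the complex and lower AlphaScreen signal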

Glucose-6-phosphate 1-dehydrogenase, sequence (P11413 whole entry): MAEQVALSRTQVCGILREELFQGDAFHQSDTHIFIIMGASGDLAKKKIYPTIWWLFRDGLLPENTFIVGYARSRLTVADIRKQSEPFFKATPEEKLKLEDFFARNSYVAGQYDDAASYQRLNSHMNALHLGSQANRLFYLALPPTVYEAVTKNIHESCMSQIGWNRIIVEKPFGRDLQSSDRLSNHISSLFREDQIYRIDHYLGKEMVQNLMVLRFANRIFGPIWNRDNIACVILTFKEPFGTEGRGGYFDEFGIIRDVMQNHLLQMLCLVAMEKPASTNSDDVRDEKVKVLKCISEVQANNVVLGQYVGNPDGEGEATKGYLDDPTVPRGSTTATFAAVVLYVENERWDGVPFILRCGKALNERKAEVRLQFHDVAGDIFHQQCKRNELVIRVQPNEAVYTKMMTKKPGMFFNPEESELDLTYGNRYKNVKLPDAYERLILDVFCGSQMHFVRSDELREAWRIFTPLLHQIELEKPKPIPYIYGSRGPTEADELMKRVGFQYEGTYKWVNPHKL
Cytochrome P450 2D6, sequence (P10635 whole entry): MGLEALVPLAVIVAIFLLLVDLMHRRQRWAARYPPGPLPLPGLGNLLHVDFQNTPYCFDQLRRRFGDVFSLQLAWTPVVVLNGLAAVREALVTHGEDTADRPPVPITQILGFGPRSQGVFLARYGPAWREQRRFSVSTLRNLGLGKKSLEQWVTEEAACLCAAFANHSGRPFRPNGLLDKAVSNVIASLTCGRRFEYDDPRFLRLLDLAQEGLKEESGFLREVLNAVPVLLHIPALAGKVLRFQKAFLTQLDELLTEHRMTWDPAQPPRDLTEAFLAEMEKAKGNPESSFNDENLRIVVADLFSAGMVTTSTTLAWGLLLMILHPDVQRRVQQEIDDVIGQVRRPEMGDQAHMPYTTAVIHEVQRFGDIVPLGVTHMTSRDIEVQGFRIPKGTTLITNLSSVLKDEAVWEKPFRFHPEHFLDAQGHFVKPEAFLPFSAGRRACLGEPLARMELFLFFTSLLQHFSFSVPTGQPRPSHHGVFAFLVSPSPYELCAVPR
T3 sequence (P49327 whole entry, the tested form may be a part): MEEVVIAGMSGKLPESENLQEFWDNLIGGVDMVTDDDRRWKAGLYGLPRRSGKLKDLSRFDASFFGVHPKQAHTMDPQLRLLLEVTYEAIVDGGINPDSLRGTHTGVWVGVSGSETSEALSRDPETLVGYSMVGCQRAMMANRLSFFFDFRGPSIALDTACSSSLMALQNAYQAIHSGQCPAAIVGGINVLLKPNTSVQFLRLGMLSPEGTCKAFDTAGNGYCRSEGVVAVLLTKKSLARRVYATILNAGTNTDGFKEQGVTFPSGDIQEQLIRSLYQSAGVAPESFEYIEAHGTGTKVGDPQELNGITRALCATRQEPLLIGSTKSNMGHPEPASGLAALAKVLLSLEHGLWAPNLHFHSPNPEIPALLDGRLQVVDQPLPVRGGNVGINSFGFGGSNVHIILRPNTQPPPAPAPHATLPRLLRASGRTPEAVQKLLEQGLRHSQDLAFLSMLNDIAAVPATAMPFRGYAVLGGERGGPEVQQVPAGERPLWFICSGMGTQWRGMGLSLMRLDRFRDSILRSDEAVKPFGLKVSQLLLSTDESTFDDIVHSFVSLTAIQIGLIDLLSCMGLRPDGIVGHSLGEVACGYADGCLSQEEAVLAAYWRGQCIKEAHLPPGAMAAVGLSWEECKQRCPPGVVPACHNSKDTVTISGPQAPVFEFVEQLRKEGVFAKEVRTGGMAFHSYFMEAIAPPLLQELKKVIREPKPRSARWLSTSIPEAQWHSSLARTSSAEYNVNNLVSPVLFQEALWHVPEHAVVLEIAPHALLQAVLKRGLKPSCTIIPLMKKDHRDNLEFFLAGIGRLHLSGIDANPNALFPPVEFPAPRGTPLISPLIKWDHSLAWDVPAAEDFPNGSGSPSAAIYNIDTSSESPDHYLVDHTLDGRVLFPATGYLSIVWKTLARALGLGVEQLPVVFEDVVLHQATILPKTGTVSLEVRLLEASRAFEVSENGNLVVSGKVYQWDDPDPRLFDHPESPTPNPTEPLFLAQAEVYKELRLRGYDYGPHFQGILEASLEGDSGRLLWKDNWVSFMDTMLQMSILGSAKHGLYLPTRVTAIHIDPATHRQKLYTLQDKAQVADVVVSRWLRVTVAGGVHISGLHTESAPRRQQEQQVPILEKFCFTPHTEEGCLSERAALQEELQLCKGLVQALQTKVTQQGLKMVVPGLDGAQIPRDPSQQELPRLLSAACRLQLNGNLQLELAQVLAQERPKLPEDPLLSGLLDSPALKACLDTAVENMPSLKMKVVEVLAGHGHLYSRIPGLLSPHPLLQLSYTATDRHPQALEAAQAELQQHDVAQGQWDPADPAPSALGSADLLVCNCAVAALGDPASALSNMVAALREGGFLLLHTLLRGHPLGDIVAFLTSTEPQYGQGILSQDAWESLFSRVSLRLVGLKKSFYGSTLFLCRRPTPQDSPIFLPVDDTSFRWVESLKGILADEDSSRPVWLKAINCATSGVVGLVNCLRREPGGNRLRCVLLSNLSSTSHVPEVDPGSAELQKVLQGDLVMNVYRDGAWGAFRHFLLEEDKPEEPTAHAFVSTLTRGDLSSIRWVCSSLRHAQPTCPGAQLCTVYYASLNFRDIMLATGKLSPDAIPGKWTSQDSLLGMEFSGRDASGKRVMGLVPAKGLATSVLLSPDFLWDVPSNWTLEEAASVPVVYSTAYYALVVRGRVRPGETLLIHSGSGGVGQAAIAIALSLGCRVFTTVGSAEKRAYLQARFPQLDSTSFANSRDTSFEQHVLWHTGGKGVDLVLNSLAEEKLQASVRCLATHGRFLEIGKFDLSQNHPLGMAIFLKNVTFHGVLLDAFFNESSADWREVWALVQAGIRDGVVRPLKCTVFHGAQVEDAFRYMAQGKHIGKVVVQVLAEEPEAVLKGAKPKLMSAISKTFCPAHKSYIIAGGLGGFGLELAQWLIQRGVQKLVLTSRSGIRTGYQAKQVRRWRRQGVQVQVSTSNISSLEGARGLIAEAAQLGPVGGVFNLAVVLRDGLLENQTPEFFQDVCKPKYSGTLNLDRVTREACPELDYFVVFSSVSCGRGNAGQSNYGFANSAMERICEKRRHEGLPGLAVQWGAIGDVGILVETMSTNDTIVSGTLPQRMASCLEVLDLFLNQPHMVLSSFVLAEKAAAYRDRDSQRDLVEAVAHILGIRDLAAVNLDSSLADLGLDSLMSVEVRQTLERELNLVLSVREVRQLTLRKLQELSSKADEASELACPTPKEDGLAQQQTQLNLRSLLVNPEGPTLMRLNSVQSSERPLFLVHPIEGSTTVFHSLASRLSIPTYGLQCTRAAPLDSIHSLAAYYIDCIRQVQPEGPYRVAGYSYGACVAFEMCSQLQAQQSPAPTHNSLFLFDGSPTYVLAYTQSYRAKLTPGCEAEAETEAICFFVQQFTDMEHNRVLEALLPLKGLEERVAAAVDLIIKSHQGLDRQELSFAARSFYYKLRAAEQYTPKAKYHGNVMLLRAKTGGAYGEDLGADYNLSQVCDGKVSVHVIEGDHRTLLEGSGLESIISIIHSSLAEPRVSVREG
Cytochrome P450 3A4, sequence (P08684 whole entry): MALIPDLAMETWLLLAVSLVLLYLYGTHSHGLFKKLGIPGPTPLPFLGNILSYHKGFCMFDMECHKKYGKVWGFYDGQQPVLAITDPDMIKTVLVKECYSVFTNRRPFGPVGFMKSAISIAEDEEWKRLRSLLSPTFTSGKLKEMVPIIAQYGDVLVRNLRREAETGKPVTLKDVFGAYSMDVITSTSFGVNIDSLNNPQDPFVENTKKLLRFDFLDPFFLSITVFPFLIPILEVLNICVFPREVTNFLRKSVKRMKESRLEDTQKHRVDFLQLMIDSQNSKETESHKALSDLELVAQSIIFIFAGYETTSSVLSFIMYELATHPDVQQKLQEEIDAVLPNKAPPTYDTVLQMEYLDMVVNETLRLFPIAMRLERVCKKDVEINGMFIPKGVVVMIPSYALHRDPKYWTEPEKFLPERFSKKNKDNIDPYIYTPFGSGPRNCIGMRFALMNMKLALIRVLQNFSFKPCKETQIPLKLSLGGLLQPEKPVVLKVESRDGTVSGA
Cytochrome P450 2C19, sequence (P33261 whole entry): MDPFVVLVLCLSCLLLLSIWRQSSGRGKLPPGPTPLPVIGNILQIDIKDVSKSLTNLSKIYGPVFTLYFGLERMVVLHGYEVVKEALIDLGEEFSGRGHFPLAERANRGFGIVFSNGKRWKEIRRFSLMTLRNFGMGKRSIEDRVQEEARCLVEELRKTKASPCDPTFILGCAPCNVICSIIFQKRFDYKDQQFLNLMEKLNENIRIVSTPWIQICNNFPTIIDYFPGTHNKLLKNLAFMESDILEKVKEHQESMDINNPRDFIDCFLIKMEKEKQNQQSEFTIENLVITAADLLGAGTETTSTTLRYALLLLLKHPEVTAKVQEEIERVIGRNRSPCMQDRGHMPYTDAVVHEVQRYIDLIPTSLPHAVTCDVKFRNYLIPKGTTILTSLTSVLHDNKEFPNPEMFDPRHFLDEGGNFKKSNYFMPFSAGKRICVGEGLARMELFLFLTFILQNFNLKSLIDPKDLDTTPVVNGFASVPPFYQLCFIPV
Paired box protein Pax-8, sequence (Q06710 whole entry): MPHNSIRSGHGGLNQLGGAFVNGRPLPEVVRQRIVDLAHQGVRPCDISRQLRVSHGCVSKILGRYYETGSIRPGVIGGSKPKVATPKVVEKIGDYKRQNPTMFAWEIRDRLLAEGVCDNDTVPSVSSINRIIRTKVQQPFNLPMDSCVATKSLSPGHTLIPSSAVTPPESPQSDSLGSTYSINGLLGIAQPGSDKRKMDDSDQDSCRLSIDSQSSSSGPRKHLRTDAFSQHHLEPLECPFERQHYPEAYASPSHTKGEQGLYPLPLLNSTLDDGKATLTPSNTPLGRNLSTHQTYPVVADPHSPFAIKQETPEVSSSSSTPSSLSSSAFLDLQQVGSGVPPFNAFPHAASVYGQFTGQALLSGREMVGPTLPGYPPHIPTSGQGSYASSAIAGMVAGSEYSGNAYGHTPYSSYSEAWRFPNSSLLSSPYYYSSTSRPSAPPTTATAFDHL

With `COc1ccc(-c2cc(-c3ccc(Cl)cc3)c(C#N)c(SCC(=O)O)n2)cc1` the IC50 [1] was 50 µM (active).

In the case of `N#Cc1cc(-c2ccccc2)nnc1Oc1ccccc1Cl`, the EC50 [2] is reported as 0.173 µM (active).

For `CCc1cc(-c2n[nH]c(C)c2-c2nc3ccccc3n2C)c(O)cc1O`, the IC50 [3] was > 80 µM (inactive) and the AC50 [4] was 40.6 µM (active).

For `CCOC(=O)c1cnc2c(CC)cccc2c1NCCCN1CCOCC1`, the AC50 [5] was 21.6 µM (active).

For `Cc1cc(C)n(-c2nc3c(c(=O)[nH]c(=O)n3C)n2CC(C)C)n1`, the AC50 [6] was “inconclusive” and the AC50 [7] was “inconclusive”.

In the case of `COC(=O)C/C=C\[C@@H](C)[C@@H](/C=N\OC[C@@H](O)[C@H]1O[C@H]2OC(C)(C)O[C@H]2[C@@H]1O)OC`, the AC50 [6] is reported as “inconclusive” and the AC50 [8] is reported as 5.01 µM (inconclusive).

For `CCOC(=O)CCCCCC(=O)Nc1ccc2c(c1)C(=O)N([C@H](C)CO)C[C@H](C)[C@@H](CN(C)C(=O)Nc1ccccc1)OCCCC[C@@H](C)O2`, the IC50 [9] was 30.8 µM (inactive).

With `CCCCCNC(=O)C(C1CC1)n1c(=O)c(-c2ccco2)nc2ccccc21` (centres undefined) the IC50 [10] was 6.11 µM (active).

For `Cc1ccc2nc(SCC(=O)N/N=C/c3ccco3)cc(C)c2c1`, the IC50 [3] was 41.8 µM (inactive).

In the case of `C/C(Cn1nnc([N+](=O)[O-])n1)=N\NC(=O)c1ccc(Cl)c(Cl)c1`, the IC50 [11] is reported as > 20 µM (inactive), the EC50 [12] is reported as 4.92 µM (active) and the IC50 [3] is reported as > 80 µM (inactive). The EC50 [13] was > 60 µM (not active), the IC50 [14] was > 20 µM (inactive) and the IC50 [15] was 18.5 µM (active). The EC50 [16] was 0.184 µM (active), the IC50 [17] was > 20 µM (inactive) and the EC50 [18] was > 20 µM (inactive).

With `COc1ccc([N+](=O)[O-])cc1/C=N/NC(=O)CNC(=O)c1cccc(F)c1` the IC50 [19] was 10.3 µM (active), the IC50 [20] was 6.76 µM (active) and the AC50 [21] was 87.2 µM (active).
